Patent publication US20120190669A1, “OXINDOLE COMPOUNDS” (CYLENE PHARMACEUTICALS, INC., priority 2008, published 2012)

system: MiaPaca human pancreatic carcinoma cells; assay: Alamar Blue cell proliferation assay, MiaPaCa; assay type: cell-based; settings: MIA PaCa-2, Table 2, read-out: AB: MiaPaCa
Experimental: (§1) A representative cell-proliferation assay protocol using Alamar Blue dye (stored at 4° C., use 20 ul per well) is described hereafter.
(§2) 96-Well Plate Setup and Compound Treatment
(§3) a. Split and trypsinize cells.
(§4) b. Count cells using hemocytometer.
(§5) c. Plate 4,000-5,000 cells per well in 100 μl of medium and seed into a 96-well plate according to the following plate layout. Add cell culture medium only to wells B10 to B12. Wells B1 to B9 have cells but no compound added.
(§6) d. Add 100 μl of 2× drug dilution to each well in a concentration shown in the plate layout above. At the same time, add 100 μl of media into the control wells (wells 1310 to B12). Total volume is 200 μl/well.
(§7) e. Incubate four (4) days at 37° C., 5% CO2 in a humidified incubator.
(§8) f. Add 20 μl Alamar Blue reagent to each well.
(§9) g. Incubate for four (4) hours at 37° C., 5% CO2 in a humidified incubator.
(§10) h. Record fluorescence at an excitation wavelength of 544 nm and emission wavelength of 590 nm using a microplate reader.
(§11) In the assays, cells are cultured with a test compound for approximately four days, the dye is then added to the cells and fluorescence of […] dye is detected after approximately four hours. Different types of cells can be utilized in the assays (e.g., HCT-116 human colorectal carcinoma cells, PC-3 human prostatic cancer cells and MiaPaca human pancreatic carcinoma cells).

| IC50 | SMILES |
| --- | --- |
| 0.559 µM | CN1CCCN(C(=O)c2cccc(-c3ccc(CC4C(=O)Nc5ccc(Cl)cc54)o3)c2)CC1 (stereo not shown) [drawing 213] |

same assay, conditions: MIA PaCa-2, Table 5, read-out: AB: MiaPaCa IC50

| SMILES | IC50 |
| --- | --- |
| O=C1Nc2ccc(F)cc2/C1=C\c1cc(-c2cccc(C(=O)NCc3ccncc3)c2)co1 [drawing 255] | > 10 µM |
| CN(C)C1CCN(C(=O)c2cccc(-c3coc(/C=C4/C(=O)Nc5ccc(F)cc54)c3)c2)CC1 [drawing 256] | > 10 µM |
| Cn1cncc1CNC(=O)c1cccc(-c2coc(/C=C3/C(=O)Nc4ccccc43)c2)c1 | > 10 µM |
| CN1CCCCC1CNC(=O)c1cccc(-c2coc(/C=C3/C(=O)Nc4ccc(F)cc43)c2)c1 (stereo not shown) [drawing 253] | > 10 µM |

The next lines start with the values.

| IC50 | SMILES |
| --- | --- |
| > 10 µM | Cn1cncc1CNC(=O)c1cccc(-c2coc(/C=C3/C(=O)Nc4ccc(F)cc43)c2)c1 [drawing 252] |
| > 10 µM | CN1CCCC(NC(=O)c2cccc(-c3coc(/C=C4/C(=O)Nc5ccccc54)c3)c2)C1 (stereo not shown) |
| 4.34 µM | COC(=O)c1cccc(-c2coc(/C=C3/C(=O)Nc4ccccc43)c2)c1 |
| 9.23 µM | CCN(CC)CCNC(=O)c1cccc(-c2coc(/C=C3/C(=O)Nc4ccccc43)c2)c1 |
| 2.4 µM | CN1CCCCC1CNC(=O)c1cccc(-c2coc(/C=C3/C(=O)Nc4ccccc43)c2)c1 (stereo not shown) |

system: PC-3 human prostatic cancer cells; assay: Alamar Blue cell proliferation assay, PC3; assay type: cell-based; settings: Table 2, read-out: AB: PC3
Experimental: as §1, §2, §3, §4, §5, §6, §7, §8, §9, §10, §11

| IC50 | SMILES |
| --- | --- |
| 15.4 µM | CN1CCCN(C(=O)c2cccc(-c3ccc(CC4C(=O)Nc5ccc(Cl)cc54)o3)c2)CC1 (stereo not shown) [drawing 213] |

same assay, conditions: Table 3, read-out: AB: PC3

| IC50 | SMILES |
| --- | --- |
| > 10 µM | CN1CCCN(C(=O)c2cccc(-c3ccc(/C=C4/C(=O)Nc5ccc(F)cc54)o3)c2)CC1 |
| > 10 µM | NS(=O)(=O)c1ccc(-c2ccc(/C=C3/C(=O)Nc4ccc(Cl)cc43)o2)cc1 |

same assay, conditions: Table 5, read-out: AB: PC3 IC50

| SMILES | IC50 |
| --- | --- |
| CN(C)C1CCN(C(=O)c2cccc(-c3coc(/C=C4/C(=O)Nc5ccc(F)cc54)c3)c2)CC1 [drawing 256] | 7.53 µM |
| Cn1cncc1CNC(=O)c1cccc(-c2coc(/C=C3/C(=O)Nc4ccccc43)c2)c1 | > 10 µM |
| CN1CCCCC1CNC(=O)c1cccc(-c2coc(/C=C3/C(=O)Nc4ccc(F)cc43)c2)c1 (stereo not shown) [drawing 253] | > 10 µM |

Results, then the compound that gave them:

| IC50 | SMILES |
| --- | --- |
| > 10 µM | Cn1cncc1CNC(=O)c1cccc(-c2coc(/C=C3/C(=O)Nc4ccc(F)cc43)c2)c1 [drawing 252] |
| > 10 µM | CN1CCCC(NC(=O)c2cccc(-c3coc(/C=C4/C(=O)Nc5ccccc54)c3)c2)C1 (stereo not shown) |
| 1.89 µM | COC(=O)c1cccc(-c2coc(/C=C3/C(=O)Nc4ccccc43)c2)c1 |
| > 10 µM | CCN(CC)CCNC(=O)c1cccc(-c2coc(/C=C3/C(=O)Nc4ccccc43)c2)c1 |
| 1.65 µM | CN1CCCCC1CNC(=O)c1cccc(-c2coc(/C=C3/C(=O)Nc4ccccc43)c2)c1 (stereo not shown) |

system: MV-4-11; assay: Alamar Blue cell proliferation assay, MV-4-11; assay type: cell-based; settings: Homo sapiens, MV4-11, Table 5, read-out: AB: MV-4-11 IC50
Experimental: as §1, §2, §3, §4, §5, §6, §7, §8, §9, §10, §11

| SMILES | IC50 |
| --- | --- |
| O=C1Nc2ccc(F)cc2/C1=C\c1cc(-c2cccc(C(=O)NCc3ccncc3)c2)co1 [drawing 255] | 1.57 µM |
| CN(C)C1CCN(C(=O)c2cccc(-c3coc(/C=C4/C(=O)Nc5ccc(F)cc54)c3)c2)CC1 [drawing 256] | 0.516 µM |
| Cn1cncc1CNC(=O)c1cccc(-c2coc(/C=C3/C(=O)Nc4ccccc43)c2)c1 | 0.998 µM |
| CN1CCCCC1CNC(=O)c1cccc(-c2coc(/C=C3/C(=O)Nc4ccc(F)cc43)c2)c1 (stereo not shown) [drawing 253] | 0.627 µM |

Next, values leading:

| IC50 | SMILES |
| --- | --- |
| 1.38 µM | Cn1cncc1CNC(=O)c1cccc(-c2coc(/C=C3/C(=O)Nc4ccc(F)cc43)c2)c1 [drawing 252] |
| 0.315 µM | CN1CCCC(NC(=O)c2cccc(-c3coc(/C=C4/C(=O)Nc5ccccc54)c3)c2)C1 (stereo not shown) |
| > 10 µM | COC(=O)c1cccc(-c2coc(/C=C3/C(=O)Nc4ccccc43)c2)c1 |
| 0.761 µM | CCN(CC)CCNC(=O)c1cccc(-c2coc(/C=C3/C(=O)Nc4ccccc43)c2)c1 |
| 0.12 µM | CN1CCCCC1CNC(=O)c1cccc(-c2coc(/C=C3/C(=O)Nc4ccccc43)c2)c1 (stereo not shown) |

system: HCT-116 human colorectal carcinoma cells; assay: Alamar Blue cell proliferation assay, HCT-116; assay type: cell-based; settings: Table 5, read-out: AB: HCT-116 IC50
Experimental: as §1, §2, §3, §4, §5, §6, §7, §8, §9, §10, §11

| SMILES | IC50 |
| --- | --- |
| O=C1Nc2ccc(F)cc2/C1=C\c1cc(-c2cccc(C(=O)NCc3ccncc3)c2)co1 [drawing 255] | > 10 µM |
| CN(C)C1CCN(C(=O)c2cccc(-c3coc(/C=C4/C(=O)Nc5ccc(F)cc54)c3)c2)CC1 [drawing 256] | 3.85 µM |
| Cn1cncc1CNC(=O)c1cccc(-c2coc(/C=C3/C(=O)Nc4ccccc43)c2)c1 | > 10 µM |
| CN1CCCCC1CNC(=O)c1cccc(-c2coc(/C=C3/C(=O)Nc4ccc(F)cc43)c2)c1 (stereo not shown) [drawing 253] | 4.47 µM |

Other lines, results leading:

| IC50 | SMILES |
| --- | --- |
| > 10 µM | Cn1cncc1CNC(=O)c1cccc(-c2coc(/C=C3/C(=O)Nc4ccc(F)cc43)c2)c1 [drawing 252] |
| 4.31 µM | CN1CCCC(NC(=O)c2cccc(-c3coc(/C=C4/C(=O)Nc5ccccc54)c3)c2)C1 (stereo not shown) |
| 2.33 µM | COC(=O)c1cccc(-c2coc(/C=C3/C(=O)Nc4ccccc43)c2)c1 |
| 7.82 µM | CCN(CC)CCNC(=O)c1cccc(-c2coc(/C=C3/C(=O)Nc4ccccc43)c2)c1 |
| 2.49 µM | CN1CCCCC1CNC(=O)c1cccc(-c2coc(/C=C3/C(=O)Nc4ccccc43)c2)c1 (stereo not shown) |

system: K-562; assay: Alamar Blue cell proliferation assay, K-562; assay type: cell-based; settings: Homo sapiens, K562, Table 2, read-out: AB: K-562
Experimental: as §1, §2, §3, §4, §5, §6, §7, §8, §9, §10, §11

| IC50 | SMILES |
| --- | --- |
| 0.24 µM | CN1CCCN(C(=O)c2cccc(-c3ccc(CC4C(=O)Nc5ccc(Cl)cc54)o3)c2)CC1 (stereo not shown) [drawing 213] |

same assay, conditions: Homo sapiens, K562, Table 5, read-out: AB: K-562 IC50

| SMILES | IC50 |
| --- | --- |
| O=C1Nc2ccc(F)cc2/C1=C\c1cc(-c2cccc(C(=O)NCc3ccncc3)c2)co1 [drawing 255] | > 10 µM |
| CN(C)C1CCN(C(=O)c2cccc(-c3coc(/C=C4/C(=O)Nc5ccc(F)cc54)c3)c2)CC1 [drawing 256] | 3.7 µM |
| Cn1cncc1CNC(=O)c1cccc(-c2coc(/C=C3/C(=O)Nc4ccccc43)c2)c1 | > 10 µM |
| CN1CCCCC1CNC(=O)c1cccc(-c2coc(/C=C3/C(=O)Nc4ccc(F)cc43)c2)c1 (stereo not shown) [drawing 253] | 1.65 µM |

More lines, now with the values ahead:

| IC50 | SMILES |
| --- | --- |
| > 10 µM | Cn1cncc1CNC(=O)c1cccc(-c2coc(/C=C3/C(=O)Nc4ccc(F)cc43)c2)c1 [drawing 252] |
| > 10 µM | CN1CCCC(NC(=O)c2cccc(-c3coc(/C=C4/C(=O)Nc5ccccc54)c3)c2)C1 (stereo not shown) |
| 1.31 µM | COC(=O)c1cccc(-c2coc(/C=C3/C(=O)Nc4ccccc43)c2)c1 |
| > 10 µM | CCN(CC)CCNC(=O)c1cccc(-c2coc(/C=C3/C(=O)Nc4ccccc43)c2)c1 |
| 0.099 µM | CN1CCCCC1CNC(=O)c1cccc(-c2coc(/C=C3/C(=O)Nc4ccccc43)c2)c1 (stereo not shown) |

target: recombinant PIM-1 (Homo sapiens, UniProt P11309); assay: PIM-1 kinase assay (radiometric, 15 uM ATP, DMSO 4%); assay type: biochemical; settings: Table 2; read-out: PIM1: IC50
Sequence (P11309 whole entry): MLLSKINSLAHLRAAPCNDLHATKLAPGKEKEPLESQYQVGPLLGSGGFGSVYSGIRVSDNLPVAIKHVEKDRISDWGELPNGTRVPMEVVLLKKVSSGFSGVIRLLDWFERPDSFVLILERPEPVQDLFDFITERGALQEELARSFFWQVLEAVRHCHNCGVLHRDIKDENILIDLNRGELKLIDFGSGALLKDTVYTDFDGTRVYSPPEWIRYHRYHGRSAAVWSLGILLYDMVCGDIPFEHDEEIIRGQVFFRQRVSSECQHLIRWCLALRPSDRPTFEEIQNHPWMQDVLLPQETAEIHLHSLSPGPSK

| IC50 | SMILES |
| --- | --- |
| < 0.1 µM | CN1CCCN(C(=O)c2cccc(-c3ccc(CC4C(=O)Nc5ccc(Cl)cc54)o3)c2)CC1 (stereo not shown) [drawing 213] |

same assay, conditions: Table 3; DMSO 4%; read-out: PIM1: IC50 (DMSO 4%)

| IC50 | SMILES |
| --- | --- |
| < 1 µM | CN1CCCN(C(=O)c2cccc(-c3ccc(/C=C4/C(=O)Nc5ccc(F)cc54)o3)c2)CC1 |
| < 1 µM | NS(=O)(=O)c1ccc(-c2ccc(/C=C3/C(=O)Nc4ccc(Cl)cc43)o2)cc1 |

same assay, conditions: Table 5; compound at 500 nM; read-out: PIM1: % inh 500 nM

| SMILES | inhibition at 0.5 µM |
| --- | --- |
| O=C1Nc2ccc(F)cc2/C1=C\c1cc(-c2cccc(C(=O)NCc3ccncc3)c2)co1 [drawing 255] | -19.1% |
| CN(C)C1CCN(C(=O)c2cccc(-c3coc(/C=C4/C(=O)Nc5ccc(F)cc54)c3)c2)CC1 [drawing 256] | 10.8% |
| Cn1cncc1CNC(=O)c1cccc(-c2coc(/C=C3/C(=O)Nc4ccccc43)c2)c1 | -14.6% |
| CN1CCCCC1CNC(=O)c1cccc(-c2coc(/C=C3/C(=O)Nc4ccc(F)cc43)c2)c1 (stereo not shown) [drawing 253] | 9.42% |

Next, values leading:

| inhibition at 0.5 µM | SMILES |
| --- | --- |
| 12.7% | Cn1cncc1CNC(=O)c1cccc(-c2coc(/C=C3/C(=O)Nc4ccc(F)cc43)c2)c1 [drawing 252] |
| -22.7% | CN1CCCC(NC(=O)c2cccc(-c3coc(/C=C4/C(=O)Nc5ccccc54)c3)c2)C1 (stereo not shown) |
| -18.4% | COC(=O)c1cccc(-c2coc(/C=C3/C(=O)Nc4ccccc43)c2)c1 |
| -10.9% | CCN(CC)CCNC(=O)c1cccc(-c2coc(/C=C3/C(=O)Nc4ccccc43)c2)c1 |
| -28.9% | CN1CCCCC1CNC(=O)c1cccc(-c2coc(/C=C3/C(=O)Nc4ccccc43)c2)c1 (stereo not shown) |
